Calls of active or inactive are those of the source. The calls are words filed in the database; no cut-off is given here.
biological target: T1, 5-hydroxytryptamine receptor 1A (Rattus norvegicus, UniProt P19327); assay: Displacement of [3H]8-OH-DPAT from 5-HT1A receptor in rat hippocampus; assay type: tissue-based
T1 sequence (P19327 whole entry): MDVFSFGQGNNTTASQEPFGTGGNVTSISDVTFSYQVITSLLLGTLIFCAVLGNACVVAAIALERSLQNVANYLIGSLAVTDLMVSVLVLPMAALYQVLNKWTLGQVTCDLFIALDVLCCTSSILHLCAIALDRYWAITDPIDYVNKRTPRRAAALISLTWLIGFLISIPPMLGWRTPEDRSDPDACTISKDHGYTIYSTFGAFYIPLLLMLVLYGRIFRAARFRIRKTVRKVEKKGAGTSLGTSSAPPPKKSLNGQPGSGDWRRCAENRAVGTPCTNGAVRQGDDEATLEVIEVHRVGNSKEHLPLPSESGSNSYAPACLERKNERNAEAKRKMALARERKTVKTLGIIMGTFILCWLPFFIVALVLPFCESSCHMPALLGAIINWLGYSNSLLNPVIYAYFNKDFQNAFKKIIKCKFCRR

**Q.** `O=c1c(-c2ccc(Cl)cc2)c2n(c(=O)n1CCCCN1CCC(c3c[nH]c4ccccc34)CC1)CCCC2` was tested. Which Ki did it give?
**A.** 48.6 nM

**Q.** Which Ki does the source give for `COc1ccccc1-c1c2n(c(=O)n(CCCCN3CCC(c4c(C)[nH]c5ccccc45)CC3)c1=O)CCCC2` here?
**A.** 319 nM

**Q.** With `Cc1[nH]c2ccccc2c1C1CCN(CCCCn2c(=O)c(-c3ccccc3Cl)c3n(c2=O)CCCC3)CC1` as the molecule, how does the Ki read?
**A.** 393 nM

**Q.** For `O=c1c(-c2ccc(F)cc2)c2n(c(=O)n1CCCCN1CCC(c3c[nH]c4ccccc34)CC1)CCCC2`, which Ki is on record?
**A.** 62.3 nM

biological target: Sodium-dependent serotonin transporter (Rattus norvegicus, UniProt P31652); assay: Displacement of [3H]citalopram from SERT in rat cerebral cortex by liquid scintillation counting; assay type: tissue-based
Sequence (P31652 whole entry): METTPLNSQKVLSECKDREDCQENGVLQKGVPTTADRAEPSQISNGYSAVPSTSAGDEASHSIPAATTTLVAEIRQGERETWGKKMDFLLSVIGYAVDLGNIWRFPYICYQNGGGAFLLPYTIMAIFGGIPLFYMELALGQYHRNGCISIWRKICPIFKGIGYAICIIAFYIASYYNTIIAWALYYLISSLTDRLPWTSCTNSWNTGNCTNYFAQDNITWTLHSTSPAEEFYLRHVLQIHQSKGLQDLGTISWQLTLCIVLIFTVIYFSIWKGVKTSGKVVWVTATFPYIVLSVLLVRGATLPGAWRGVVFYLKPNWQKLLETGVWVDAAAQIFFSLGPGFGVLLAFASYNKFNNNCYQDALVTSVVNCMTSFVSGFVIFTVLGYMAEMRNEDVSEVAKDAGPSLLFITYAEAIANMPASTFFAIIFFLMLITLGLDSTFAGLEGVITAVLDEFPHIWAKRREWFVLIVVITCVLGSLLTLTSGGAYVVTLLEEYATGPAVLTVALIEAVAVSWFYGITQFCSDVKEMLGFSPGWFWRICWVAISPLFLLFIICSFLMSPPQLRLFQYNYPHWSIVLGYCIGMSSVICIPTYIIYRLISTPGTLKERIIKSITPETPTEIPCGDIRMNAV

**Q.** For `O=c1c(-c2ccc(Cl)cc2)c2n(c(=O)n1CCCCN1CCC(c3c[nH]c4ccccc34)CC1)CCCC2`, which Ki is on record?
**A.** 44.1 nM

**Q.** For `COc1ccccc1-c1c2n(c(=O)n(CCCCN3CCC(c4c(C)[nH]c5ccccc45)CC3)c1=O)CCCC2`, which Ki is on record?
**A.** 1300 nM

**Q.** How did the Ki turn out when `Cc1[nH]c2ccccc2c1C1CCN(CCCCn2c(=O)c(-c3ccccc3Cl)c3n(c2=O)CCCC3)CC1` was run?
**A.** 1300 nM

**Q.** With `O=c1c(-c2ccc(F)cc2)c2n(c(=O)n1CCCCN1CCC(c3c[nH]c4ccccc34)CC1)CCCC2` as the molecule, how does the Ki read?
**A.** 47 nM

tested on: Mus musculus; assay: Effect on hypothermia in Swiss albino mouse assessed as change in rectal body temperature at 5 mg/kg, ip after 30 mins by inducible hypothermia test; assay type: functional, organism-based; design: dose 5 mg/kg

**Q.** With `O=c1c(-c2ccc(Cl)cc2)c2n(c(=O)n1CCCCN1CCC(c3c[nH]c4ccccc34)CC1)CCCC2` as the molecule, how does the deltaT read?
**A.** -1 °C

tested on: Mus musculus; assay: Effect on hypothermia in Swiss albino mouse assessed as change in rectal body temperature at 5 mg/kg, ip after 60 mins by inducible hypothermia test; assay type: functional, organism-based; design: dose 5 mg/kg

**Q.** `O=c1c(-c2ccc(Cl)cc2)c2n(c(=O)n1CCCCN1CCC(c3c[nH]c4ccccc34)CC1)CCCC2` was tested. Which deltaT did it give?
**A.** -0.5 °C

tested on: Mus musculus; assay: Effect on hypothermia in Swiss albino mouse assessed as change in rectal body temperature at 5 mg/kg, ip after 90 mins by inducible hypothermia test; assay type: functional, organism-based; design: dose 5 mg/kg

**Q.** `O=c1c(-c2ccc(Cl)cc2)c2n(c(=O)n1CCCCN1CCC(c3c[nH]c4ccccc34)CC1)CCCC2` was tested. Which deltaT did it give?
**A.** -0.4 °C

tested on: Mus musculus; assay: Effect on hypothermia in Swiss albino mouse assessed as change in rectal body temperature at 5 mg/kg, ip after 120 mins by inducible hypothermia test; assay type: functional, organism-based; design: dose 5 mg/kg

**Q.** Which deltaT does the source give for `O=c1c(-c2ccc(Cl)cc2)c2n(c(=O)n1CCCCN1CCC(c3c[nH]c4ccccc34)CC1)CCCC2` here?
**A.** -0.3 °C

tested on: Mus musculus; assay: Effect on hypothermia in Swiss albino mouse assessed as change in rectal body temperature at 2.5 mg/kg, ip after 30 mins by inducible hypothermia test; assay type: functional, organism-based; design: dose 2.5 mg/kg

**Q.** Which deltaT does the source give for `O=c1c(-c2ccc(Cl)cc2)c2n(c(=O)n1CCCCN1CCC(c3c[nH]c4ccccc34)CC1)CCCC2` here?
**A.** -0.3 °C

tested on: Mus musculus; assay: Effect on hypothermia in Swiss albino mouse assessed as change in rectal body temperature at 2.5 mg/kg, ip after 60 mins by inducible hypothermia test; assay type: functional, organism-based; design: dose 2.5 mg/kg

**Q.** For `O=c1c(-c2ccc(Cl)cc2)c2n(c(=O)n1CCCCN1CCC(c3c[nH]c4ccccc34)CC1)CCCC2`, which deltaT is on record?
**A.** -0.4 °C

tested on: Mus musculus; assay: Effect on hypothermia in Swiss albino mouse assessed as change in rectal body temperature at 2.5 mg/kg, ip after 90 mins by inducible hypothermia test; assay type: functional, organism-based; design: dose 2.5 mg/kg

**Q.** With `O=c1c(-c2ccc(Cl)cc2)c2n(c(=O)n1CCCCN1CCC(c3c[nH]c4ccccc34)CC1)CCCC2` as the molecule, how does the deltaT read?
**A.** -0.1 °C

tested on: Mus musculus; assay: Effect on hypothermia in Swiss albino mouse assessed as change in rectal body temperature at 2.5 mg/kg, ip after 120 mins by inducible hypothermia test; assay type: functional, organism-based; design: dose 2.5 mg/kg

**Q.** How did the deltaT turn out when `O=c1c(-c2ccc(Cl)cc2)c2n(c(=O)n1CCCCN1CCC(c3c[nH]c4ccccc34)CC1)CCCC2` was run?
**A.** -0.1 °C

tested on: Mus musculus; assay: Effect on hypothermia in Swiss albino mouse assessed as change in rectal body temperature at 5 mg/kg, ip dosed 15 mins after 0.1 mg/kg, sc WAY 100635 challenge measured after 30 mins by inducible hypothermia test; assay type: functional, organism-based

**Q.** Which deltaT does the source give for `O=c1c(-c2ccc(Cl)cc2)c2n(c(=O)n1CCCCN1CCC(c3c[nH]c4ccccc34)CC1)CCCC2` here?
**A.** -0.2 °C

tested on: Mus musculus; assay: Effect on hypothermia in Swiss albino mouse assessed as change in rectal body temperature at 5 mg/kg, ip dosed 15 mins after 0.1 mg/kg, sc WAY 100635 challenge measured after 60 mins by inducible hypothermia test; assay type: functional, organism-based

**Q.** How did the deltaT turn out when `O=c1c(-c2ccc(Cl)cc2)c2n(c(=O)n1CCCCN1CCC(c3c[nH]c4ccccc34)CC1)CCCC2` was run?
**A.** -0.1 °C

tested on: Mus musculus; assay: Reduction of 8-OH-DPAT-induced hypothermia in Swiss albino mouse at 20 mg/kg, ip administered 45 mins prior 8-OH-DPAT challenge measured after 15 mins by inducible hypothermia test; assay type: functional, organism-based; design: dose 20 mg/kg

**Q.** Which deltaT does the source give for `O=c1c(-c2ccc(F)cc2)c2n(c(=O)n1CCCCN1CCC(c3c[nH]c4ccccc34)CC1)CCCC2` here?
**A.** -0.7 °C

tested on: Mus musculus; assay: Reduction of 8-OH-DPAT-induced hypothermia in Swiss albino mouse at 20 mg/kg, ip administered 45 mins prior 8-OH-DPAT challenge measured after 30 mins by inducible hypothermia test; assay type: functional, organism-based; design: dose 20 mg/kg

**Q.** How did the deltaT turn out when `O=c1c(-c2ccc(F)cc2)c2n(c(=O)n1CCCCN1CCC(c3c[nH]c4ccccc34)CC1)CCCC2` was run?
**A.** -1.6 °C

tested on: Mus musculus; assay: Reduction of 8-OH-DPAT-induced hypothermia in Swiss albino mouse at 20 mg/kg, ip administered 45 mins prior 8-OH-DPAT challenge measured after 45 mins by inducible hypothermia test; assay type: functional, organism-based; design: dose 20 mg/kg

**Q.** For `O=c1c(-c2ccc(F)cc2)c2n(c(=O)n1CCCCN1CCC(c3c[nH]c4ccccc34)CC1)CCCC2`, which deltaT is on record?
**A.** -1.1 °C

tested on: Mus musculus; assay: Reduction of 8-OH-DPAT-induced hypothermia in Swiss albino mouse at 20 mg/kg, ip administered 45 mins prior 8-OH-DPAT challenge measured after 60 mins by inducible hypothermia test; assay type: functional, organism-based; design: dose 20 mg/kg

**Q.** For `O=c1c(-c2ccc(F)cc2)c2n(c(=O)n1CCCCN1CCC(c3c[nH]c4ccccc34)CC1)CCCC2`, which deltaT is on record?
**A.** -0.6 °C

tested on: Mus musculus; assay: Antidepressant activity in Swiss albino mouse assessed as total immobility time at 2.5 mg/kg, ip administered 30 mins before test measured 6 mins test session after 2 mins habituation period by forced swimming test; assay type: functional, organism-based; design: dose 2.5 mg/kg

**Q.** With `O=c1c(-c2ccc(Cl)cc2)c2n(c(=O)n1CCCCN1CCC(c3c[nH]c4ccccc34)CC1)CCCC2` as the molecule, how does the Activity read?
**A.** inactive

tested on: Mus musculus; assay: Antidepressant activity in Swiss albino mouse assessed as total immobility time at 5 mg/kg, ip administered 30 mins before test measured 6 mins test session after 2 mins habituation period by forced swimming test; assay type: functional, organism-based; design: dose 5 mg/kg

**Q.** Which Activity does the source give for `O=c1c(-c2ccc(Cl)cc2)c2n(c(=O)n1CCCCN1CCC(c3c[nH]c4ccccc34)CC1)CCCC2` here?
**A.** inactive
